One data set relates to HCT116. Nature of the data set: MTT antiproliferative assay, HCT116. Format: cell-based, human. The note with it: Homo sapiens, HCT-116, 48 h, mean ± SD. The source says:
(§1) The MTT method was used to evaluate the anti-tumor activity and cytotoxic activity of all the synthesized compounds in four tumor cell lines (HeLa, HCT-116, A549 and HepG-2) and normal liver cells (L02). At the same time, the 5-fluorouracil(5-Fu) and CA-4 were used as positive references. […] Unfortunately, our target compound has a similar cytotoxicity to tumor cells and normal cells.
(§2) The HeLa, HCT-116, A549 and HepG-2 cells in the logarithmic growth phase were trypsinized, diluted with 10% DMEM medium and evenly seeded in a 96-well plate with 1 × 10^4 cells per well. We placed the inoculated 96-well plate in an incubator at 37 °C and 5% CO2 for 4 h. After the cells adhered to the wall, we removed the medium. We added 150 μL of medicated medium (1% DMEM) to each well of the experimental group, and the control group was added with an equal volume of solvent, with 3 replicate holes for each concentration. Then, we put it in the incubator and continued to incubate for 48 h. After that, we added MTT reagent in the dark, continued incubating for 4 h, discarded the supernatant, added 150 µL DMSO to each well and shook it for 10 min in the dark to fully dissolved the formazan. The absorbance was read at 492 nm by a microplate reader (ELx 800, BioTek, Highland Park, Winooski, VT, USA).
(§3) The inhibition rate (%) = (1-dosing hole OD value/control hole OD value); we drew a logarithmic curve diagram according to the inhibition rate and the dosing concentration to obtain the half inhibitory concentration.
On the technique in general: Tetrazolium assays rely on reduction of a dye to a coloured formazan, in cell work by metabolically active cells.

The next data set relates to HepG-2. Description: MTT antiproliferative assay, HepG-2. The class given is cell-based, human. The note with it: Homo sapiens, HepG2, 48 h, mean ± SD.
Description: as §1, §2, §3

Data set [1] has as its system HeLa, HCT-116, A549 and HepG-2. Nature of the data set: MTT antiproliferative activity across the four tumor cell lines. The note with it: SAR discussion. Format: cell-based, human.
Description: as §1
As shown in, at the beginning, we first synthesized the ortho and meta substituted compounds, D7, D8, D9, D11 and D15. […] Then, we decided to introduce para-substituted benzaldehyde. […] This stimulated our interest, so we continued to introduce -OCH3 substituted at different positions to explore the effect of -OCH3 substituted at different positions on the anti-tumor activity of the compound. […] In short, we obtained a compound named D13 with good anti-tumor activity, and it was worthy of further study.
as §2, §3

The next data set relates to A549. Nature of the data set: MTT antiproliferative assay, A549. Format: cell-based, human. The note with it: Homo sapiens, A549, 48 h, mean ± SD. On the procedure:
The MTT method was used to evaluate the anti-tumor activity and cytotoxic activity of all the synthesized compounds in four tumor cell lines (HeLa, HCT-116, A549 and HepG-2) and normal liver cells (L02).
as §2, §3

A further data set concerns the target T1, tubulin (Sus scrofa, UniProt P02550+P02554).
T1 construct: purchased Cytoskeleton (Danvers, MA, USA) BK011P
Description: In vitro tubulin polymerization assay (fluorescence kit). The class given is biochemical. The conditions noted are these: area under fluorescence curve, 37 °C, 40 min.

A further data set relates to HeLa. Description: MTT antiproliferative assay, HeLa. The class given is cell-based, human. The note with it: 48 h, mean ± SD.
Description: as §1, §2, §3

For a further data set, the system named is L02. Nature of the data set: MTT cytotoxicity assay, normal liver cells L02. The class given is cell-based. The note with it: Homo sapiens, L02, 48 h, mean ± SD.
Description: as §1, §2, §3

Usually IC50 stands for the concentration that gives 50% inhibition. A high value points to a need for much substance. Broadly, the melting point is the temperature of the solid-liquid transition.

“Also recorded” adds a separate entry of the source.

T1 sequence (P02554 whole entry): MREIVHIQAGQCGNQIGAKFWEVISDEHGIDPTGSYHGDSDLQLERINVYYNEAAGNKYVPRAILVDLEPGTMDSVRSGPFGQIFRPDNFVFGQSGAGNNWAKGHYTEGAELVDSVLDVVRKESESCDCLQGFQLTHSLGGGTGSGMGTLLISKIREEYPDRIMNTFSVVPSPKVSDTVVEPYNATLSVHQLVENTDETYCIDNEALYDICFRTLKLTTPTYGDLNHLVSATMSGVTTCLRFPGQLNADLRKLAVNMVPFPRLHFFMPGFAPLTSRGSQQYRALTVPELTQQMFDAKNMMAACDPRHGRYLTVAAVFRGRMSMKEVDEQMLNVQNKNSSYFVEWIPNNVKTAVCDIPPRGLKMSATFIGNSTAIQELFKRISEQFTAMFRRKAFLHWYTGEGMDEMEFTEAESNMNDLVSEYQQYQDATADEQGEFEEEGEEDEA
T1 sequence (P02550 whole entry): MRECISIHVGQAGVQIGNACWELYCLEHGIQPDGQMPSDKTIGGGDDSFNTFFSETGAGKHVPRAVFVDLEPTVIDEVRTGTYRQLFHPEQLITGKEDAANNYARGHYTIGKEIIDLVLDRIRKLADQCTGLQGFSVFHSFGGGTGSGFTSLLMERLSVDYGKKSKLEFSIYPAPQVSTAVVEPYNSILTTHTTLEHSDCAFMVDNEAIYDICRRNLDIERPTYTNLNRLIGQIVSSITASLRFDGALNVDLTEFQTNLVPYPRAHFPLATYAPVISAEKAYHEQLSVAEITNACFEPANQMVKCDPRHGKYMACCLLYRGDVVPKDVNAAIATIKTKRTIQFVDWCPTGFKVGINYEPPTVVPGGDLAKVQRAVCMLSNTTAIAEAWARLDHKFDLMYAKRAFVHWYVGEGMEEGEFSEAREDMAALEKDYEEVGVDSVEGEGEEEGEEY
Description for tubulin: A tubulin polymerization assay was performed by measuring the increase in the fluorescence intensity, which can be easily recorded due to the incorporation of a fluorescent reporter, DAPI (4′,6-diamidino-2-phenylindole), a fluorophore that is known to be a DNA intercalator. In our experiment, a commercial kit (cytoskeleton, cat. #BK011P) purchased from Cytoskeleton (Danvers, MA, USA) was used for the tubulin polymerization. The final buffer used for tubulin polymerization contained 80.0 mM of piperazine-N,N’-bis(2ethanesulfonic acid) sequisodium salt (pH 6.9), 2.0 mM MgCl2, 0.5 mM EGTA, 1.0 mM GTP, and 10.2% of glycerol. First, 5 μL of the tested compounds at the indicated concentrations was added, and the mixture was warmed to 37 °C for 1 min; then, the reaction was initiated by the addition of 55 uL of the tubulin solution. The fluorescence intensity enhancement was recorded every 30 s for 40 min in a multifunction microplate reader (Molecular Devices, Flex Station 3) (emission wavelength of 420 nm, excitation wavelength of 360 nm).

Molecule `COc1ccc(CN(c2cc(OC)c(OC)c(OC)c2)S(=O)(=O)c2ccc3c(c2)CCC(=O)N3)cc1` [Compound D13, N-(4-methoxybenzyl)-2-oxo-N-(3,4,5-trimethoxyphenyl)-1,2,3,4-tetrahydroquinoline-6-sulfonamide] registered a melting point of 122 to 124 °C. In the data set with HCT116, this molecule displayed an IC50 of 0.94 ± 0.31 µM. This molecule also showed an IC50 in the data set with HepG-2 of 1.82 ± 0.97 µM. Moreover, the “antiproliferative activity (in words)” value in data set [1] was “strongest anti-proliferative activity; also recorded: strong anti-proliferative activity”. The same molecule gave an IC50 with A549 of 1.57 ± 0.25 µM. The half-maximal inhibitory concentration (IC50) at tubulin came to 6.74 µM. In the data set with HeLa, this molecule returned an IC50 of 1.46 ± 0.11 µM. The molecule also had an IC50 with HeLa (Homo sapiens, HeLa) of 1.34 µM. In the data set with L02, the IC50 was 3.61 ± 1.02 µM.
